Data set [1] has as its system SMN2 minigene (full length SMN2 minigene mRNA containing SMN2 exon 7). Put plainly: SMN2 minigene mRNA splicing RT-qPCR assay in cultured cells. As to conditions: Homo sapiens, HEK293-H; HEK293H cells stably transfected with SMN2-A minigene; 24 hours; 7-point concentration curve; 1.5-fold relative to vehicle-treated cells; read-out: EC1.5x for production of full length SMN2 mRNA. In kind it is cell-based, human. The essentials:
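Read-out: full-length (exon 7-included) SMN2 minigene mRNA by multiplex RT-qPCR with GAPDH, efficiency-corrected (1+E)^−Ct, GAPDH-normalized and divided by vehicle. Stably transfected HEK293H cells, 24 h compound exposure, duplicates per concentration. Value is EC1.5x, reported as star ranges.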
Background: Quantitative PCR measures a nucleic acid by following its amplification.

In data set [2] the test system is Smn protein. Put plainly: Smn protein assay in cultured cells (SMN HTRF). In kind it is cell-based, human. As to conditions: 48 hours; for EC1.5x (concentration giving 1.5-fold Smn protein increase): SMA Type 1 patient fibroblast cells (GM03813), 7-point concentration curve, SMN HTRF, concentration producing 1.5 times Smn protein vs DMSO vehicle control, read-out: EC1.5x for Smn protein expression; for maximum fold (Fold) increase of Smn protein: SMA patient fibroblast cells, 7-point concentration data, fold increase relative to vehicle control (SMN HTRF). The essentials:
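Lysates in RIPA with protease inhibitors are incubated overnight at room temperature with HTRF anti-SMN antibodies. EC1.5x is derived from fold increase in ΔF over vehicle.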
In general terms: In TR-FRET formats the signal depends on donor and acceptor labels being close together.

Experimental findings from patent publication USRE47689E1, “Compounds for treating spinal muscular atrophy” (PTC Therapeutics, Inc., priority 2011, dated 2019) are described below.

A word on the melting point: it is the temperature, or range, at which the solid turns liquid.

For `CCc1nc(C)cn2cc(-c3cc4ccc(N5CCN(C)CC5)cc4oc3=O)nc12` [Compound 830, 3-(8-ethyl-6-methylimidazo[1,2-a]pyrazin-2-yl)-7-(4-methylpiperazin-1-yl)-2H-chromen-2-one], the melting point lay in the range of 210 to 215 °C. Moreover, the EC (1.5-fold) in data set [1] is below 0.1 µM. Besides, in data set [2], the EC1.5x (concentration giving 1.5-fold Smn protein increase) was below 300 nM and the “maximum fold (Fold) increase of Smn protein” value (“maximum fold (Fold) increase” for short) is “***** (fold increase >1.65)”.

Regarding `Cc1ccc2nc(-c3cc4ccc(N5CCN(C)CC5)cc4oc3=O)cn2c1` [Compound 81, 3-(6-methylimidazo[1,2-a]pyridin-2-yl)-7-(4-methylpiperazin-1-yl)-2H-chromen-2-one], the melting point is 267 °C (dec.). In data set [1], the EC (1.5-fold) fell in the range of 0.3 to 1 µM. Further, in data set [2], the EC1.5x (concentration giving 1.5-fold Smn protein increase) lay in the range of 3000 to 10000 nM; the “maximum fold (Fold) increase” value was “*** (fold increase between >1.35 and ≤1.5)”.

Consider `O=c1oc2cc(N3CCNCC3)cc(F)c2cc1-c1cn2cccc(Cl)c2n1` [Compound 392, 3-(8-chloroimidazo[1,2-a]pyridin-2-yl)-5-fluoro-7-(piperazin-1-yl)-2H-chromen-2-one], for which the melting point lay in the range of 241 to 250 °C. In addition, the EC (1.5-fold) in data set [1] was 0.3 to 1 µM. Further, the “maximum fold (Fold) increase” value in data set [2] is “** (fold increase between >1.2 and ≤1.35)”.

`C[C@@H]1CN(c2ccc3cc(-c4cn5cccc(F)c5n4)c(=O)oc3c2)C[C@H](C)N1` [Compound 338, 7-[(3R,5S)-3,5-dimethylpiperazin-1-yl]-3-(8-fluoroimidazo[1,2-a]pyridin-2-yl)-2H-chromen-2-one] gave a melting point of 176 to 180 °C. Moreover, the EC (1.5-fold) in data set [1] fell in the range of 0.1 to 0.3 µM. Besides, in data set [2], the EC1.5x (concentration giving 1.5-fold Smn protein increase) was in the range of 3000 to 10000 nM; the “maximum fold (Fold) increase” value is “** (fold increase between >1.2 and ≤1.35)”.

With `O=c1oc2cc(CN3CCNCC3)ccc2cc1-c1nc2c(Cl)cccc2s1` [Compound 7, 3-(4-chloro-1,3-benzothiazol-2-yl)-7-(piperazin-1-ylmethyl)-2H-chromen-2-one], the melting point lay within 222 to 226 °C. For the same compound, the EC (1.5-fold) in data set [1] is 3 to 30 µM. Also, in data set [2], the “maximum fold (Fold) increase” value was “* (maximum fold increase of ≤1.2)”.

Compound `CN(C)CCN(C)c1ccc2cc(-c3cn4ccsc4n3)c(=O)oc2c1` [Compound 202, 7-{[2-(dimethylamino)ethyl](methyl)amino}-3-(imidazo[2,1-b][1,3]thiazol-6-yl)-2H-chromen-2-one] came in with a melting point of 185 to 188 °C. For the same compound, the EC (1.5-fold) in data set [1] fell in the range of 0.3 to 1 µM. Further, the “maximum fold (Fold) increase” value in data set [2] was “** (fold increase between >1.2 and ≤1.35)”.

The compound `Cc1cn2cc(-c3cc4ccc(O[C@@H]5CCN(CCO)C5)cc4oc3=O)nc2c(C)n1` [Compound 892, 3-(6,8-dimethylimidazo[1,2-a]pyrazin-2-yl)-7-{[(3R)-1-(2-hydroxyethyl)pyrrolidin-3-yl]oxy}-2H-chromen-2-one] registered a melting point of 190 to 196 °C. In addition, the EC (1.5-fold) in data set [1] is below 0.1 µM. For the same compound, in data set [2], the EC1.5x (concentration giving 1.5-fold Smn protein increase) is below 300 nM; the “maximum fold (Fold) increase” value is “**** (fold increase between >1.5 and ≤1.65)”.

For `Cc1cn2cc(-c3cc4ccc(N5CCN6CCCCC6C5)cc4oc3=O)nc2cn1` (centres unmarked) [Compound 635, 3-(6-methylimidazo[1,2-a]pyrazin-2-yl)-7-(octahydro-2H-pyrido[1,2-a]pyrazin-2-yl)-2H-chromen-2-one], the melting point was in the range of 275 to 277 °C. Besides, the EC (1.5-fold) in data set [1] was below 0.1 µM. In addition, in data set [2], the EC1.5x (concentration giving 1.5-fold Smn protein increase) was below 300 nM; the “maximum fold (Fold) increase” value was “**** (fold increase between >1.5 and ≤1.65)”.

For `O=c1oc2cc(N3CCCNCC3)ccc2cc1-c1nc(C(F)(F)F)cs1` [Compound 237, 7-(1,4-diazepan-1-yl)-3-[4-(trifluoromethyl)-1,3-thiazol-2-yl]-2H-chromen-2-one], the melting point was 200 °C. For the same compound, the EC (1.5-fold) in data set [1] lay in the range of 1 to 3 µM. Moreover, in data set [2], the “maximum fold (Fold) increase” value is on record as “* (maximum fold increase of ≤1.2)”.
